How the values were obtained:
[1] = target: T1, PDGF-Ra (Homo sapiens, UniProt P16234); assay: Inhibitory activity against PDGF-Ra phosphorylation by PDGF-AA stimulation using G292; format: cell-based; settings: for IC50: > means inhibition at indicated concentration not more than 50%, < and << not less than 50%, read-out: PDGF (E) IC50; for inhibition at 0.1 µM: G292, read-out: PDGF (E) inhibition (%) at 100 nM; for inhibition at 0.1 µM / PDGF (E) inhibition (%) at 100 nM: figure within parentheses in >100( ), at 100 nM
T1 construct: host or cells: G-292 human osteosarcoma cells
T1 sequence (P16234 24-1089): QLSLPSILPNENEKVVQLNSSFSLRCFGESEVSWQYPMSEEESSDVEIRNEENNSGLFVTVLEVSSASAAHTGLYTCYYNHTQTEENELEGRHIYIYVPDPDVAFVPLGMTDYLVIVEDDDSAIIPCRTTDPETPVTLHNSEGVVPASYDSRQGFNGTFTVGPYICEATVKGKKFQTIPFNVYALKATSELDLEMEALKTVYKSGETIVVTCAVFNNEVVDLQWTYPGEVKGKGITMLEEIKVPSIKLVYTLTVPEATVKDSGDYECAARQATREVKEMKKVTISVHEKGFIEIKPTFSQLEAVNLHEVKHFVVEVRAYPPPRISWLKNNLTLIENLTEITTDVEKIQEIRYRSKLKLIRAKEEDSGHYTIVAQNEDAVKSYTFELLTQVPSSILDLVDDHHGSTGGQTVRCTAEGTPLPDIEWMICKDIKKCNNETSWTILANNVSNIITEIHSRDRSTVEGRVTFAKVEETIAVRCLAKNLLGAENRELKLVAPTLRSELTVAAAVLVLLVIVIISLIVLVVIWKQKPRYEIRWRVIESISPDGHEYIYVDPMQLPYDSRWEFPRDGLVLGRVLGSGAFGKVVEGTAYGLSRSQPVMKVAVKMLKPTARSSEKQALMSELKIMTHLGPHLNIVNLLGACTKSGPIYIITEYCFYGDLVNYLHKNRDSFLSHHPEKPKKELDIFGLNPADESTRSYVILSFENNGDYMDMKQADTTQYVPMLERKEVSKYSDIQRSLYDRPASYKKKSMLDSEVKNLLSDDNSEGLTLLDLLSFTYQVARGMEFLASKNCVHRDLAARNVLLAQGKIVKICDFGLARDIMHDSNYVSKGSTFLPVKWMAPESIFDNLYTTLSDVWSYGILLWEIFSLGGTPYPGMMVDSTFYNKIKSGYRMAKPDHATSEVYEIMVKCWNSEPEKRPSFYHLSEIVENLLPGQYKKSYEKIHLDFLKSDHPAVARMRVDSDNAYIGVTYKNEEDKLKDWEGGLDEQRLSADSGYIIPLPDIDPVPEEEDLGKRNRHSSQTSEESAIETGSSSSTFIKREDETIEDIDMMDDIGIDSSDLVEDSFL
In short: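 Phosphorylated PDGF-Ra was measured colorimetrically (450 nm) after tyrosine-phosphorylated proteins from G-292 lysates were bound to PY-20-coated wells and detected with anti-PDGF-Ra antibody. Compound preincubation lasted 1 hr, followed by 50 ng/ml PDGF-AA for 5 min.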

[2] = target: T2, c-kit (Homo sapiens, UniProt P10721); assay: Inhibitory activity against c-kit autophosphorylation (MO7e cells, h-SCF); format: cell-based; settings: for IC50: MO7e cells, 50 ng/ml h-SCF, read-out: c-kit IC50; for inhibition at 1 µM: Mo7e, figure within parentheses in −( ) or >1000( ), at 1000 nM
T2 construct: MO7e (human megakaryocytic leukemia cell line) which had been arrested for 20 hr; endogenous in cells; host or cells: MO7e human megakaryocytic leukemia cell line
T2 sequence (P10721 26-976): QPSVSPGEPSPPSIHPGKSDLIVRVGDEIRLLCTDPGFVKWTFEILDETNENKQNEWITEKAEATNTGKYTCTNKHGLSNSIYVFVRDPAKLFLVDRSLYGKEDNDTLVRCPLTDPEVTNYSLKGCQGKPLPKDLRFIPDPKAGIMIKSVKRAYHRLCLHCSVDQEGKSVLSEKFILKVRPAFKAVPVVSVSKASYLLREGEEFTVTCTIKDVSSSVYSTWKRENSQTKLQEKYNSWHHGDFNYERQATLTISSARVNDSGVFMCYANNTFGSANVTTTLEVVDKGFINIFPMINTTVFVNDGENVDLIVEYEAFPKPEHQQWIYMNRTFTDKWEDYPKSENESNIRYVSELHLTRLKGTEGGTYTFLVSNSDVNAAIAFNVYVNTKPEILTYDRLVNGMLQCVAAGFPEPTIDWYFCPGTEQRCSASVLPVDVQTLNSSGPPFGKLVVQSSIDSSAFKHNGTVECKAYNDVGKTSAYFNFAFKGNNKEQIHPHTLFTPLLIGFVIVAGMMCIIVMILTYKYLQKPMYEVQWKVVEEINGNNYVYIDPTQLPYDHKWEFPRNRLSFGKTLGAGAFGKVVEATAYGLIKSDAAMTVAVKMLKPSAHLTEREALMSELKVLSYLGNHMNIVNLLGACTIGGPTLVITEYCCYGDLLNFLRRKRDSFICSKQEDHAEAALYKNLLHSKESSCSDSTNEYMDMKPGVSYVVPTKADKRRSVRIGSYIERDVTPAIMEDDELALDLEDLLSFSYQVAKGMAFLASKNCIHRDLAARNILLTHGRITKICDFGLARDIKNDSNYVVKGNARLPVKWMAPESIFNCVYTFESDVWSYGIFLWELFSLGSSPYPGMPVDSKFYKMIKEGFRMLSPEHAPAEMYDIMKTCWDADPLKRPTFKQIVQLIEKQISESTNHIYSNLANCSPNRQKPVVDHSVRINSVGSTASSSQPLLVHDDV
In short: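 MO7e cells, arrested for 20 hr, were pretreated with test compound in DMSO for 1 hr and then stimulated with 50 ng/ml h-SCF for 5 min before lysis. Lysates were captured on immobilized anti-phosphotyrosine PY-20, probed with anti-c-kit antibody and HRP anti-rabbit IgG, and read colorimetrically at 450 nm.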

IC50 [1] [nM] | IC50 [2] [nM] | inhibition at 1 µM [2] [%] | inhibition at 0.1 µM [1] [%] | Structure (SMILES) | PDGF (E) inhibition (%) at 100 nM [1] [%]
16 | 125 | – | – | COc1cc2ncnc(Oc3ccc(N(C)C(=O)OC4CCCCCC4)cc3)c2cc1OC [Example 494, Cycloheptyl N-{4-[(6,7-dimethoxy-4-quinazolinyl)oxy]phenyl}-N-methylcarbamate] | –
45 | – | 32 | – | C#CCC(CC)OC(=O)N(C)c1ccc(Oc2ccnc3cc(OC)c(OC)cc23)cc1 (stereo not drawn) [Example 496, 1-Ethyl-3-butynyl N-{4-[(6,7-dimethoxy-4-quinolyl)oxy]phenyl}-N-methylcarbamate] | –
< 10 | 82 | – | – | COc1cc(Oc2ncnc3cc(OC)c(OC)cc23)ccc1NC(=O)OC1CCCCC1 [Example 497, Cyclohexyl N-{4-[(6,7-dimethoxy-4-quinazolinyl)oxy]-2-methoxyphenyl}carbamate] | –
< 10 | 140 | – | – | COc1cc(Oc2ncnc3cc(OC)c(OC)cc23)ccc1NC(=O)OC1CCCCCC1 [Example 498, Cycloheptyl N-{4-[(6,7-dimethoxy-4-quinazolinyl)oxy]-2-methoxyphenyl}carbamate] | –
< 10 | 98 | – | – | COc1cc(Oc2ncnc3cc(OC)c(OC)cc23)ccc1NC(=O)OCc1ccccc1Cl [Example 499, 2-Chlorobenzyl N-{4-[(6,7-dimethoxy-4-quinazolinyl)oxy]-2-methoxyphenyl}carbamate] | –
14 | 199 | – | – | COc1ccccc1COC(=O)Nc1ccc(Oc2ncnc3cc(OC)c(OC)cc23)cc1OC [Example 500, 2-Methoxybenzyl N-{4-[(6,7-dimethoxy-4-quinazolinyl)oxy]-2-methoxyphenyl}carbamate] | –
11 | 56 | – | – | COc1cc(Oc2ncnc3cc(OC)c(OC)cc23)ccc1NC(=O)OCCc1ccccn1 [Example 501, 2-(2-Pyridyl)ethyl N-{4-[(6,7-dimethoxy-4-quinazolinyl)oxy]-2-methoxyphenyl}carbamate] | –
87 | – | 36 | – | COc1cc2ncnc(Oc3ccc(NC(=O)OC4CCCCC4)c([N+](=O)[O-])c3)c2cc1OC [Example 503, Cyclohexyl N-{4-[(6,7-dimethoxy-4-quinazolinyl)oxy]-2-nitrophenyl}carbamate] | –
46 | – | 42 | – | COc1cc2ncnc(Oc3ccc(NC(=O)OCc4ccccc4Cl)c([N+](=O)[O-])c3)c2cc1OC [Example 504, 2-Chlorobenzyl N-{4-[(6,7-dimethoxy-4-quinazolinyl)oxy]-2-nitrophenyl}carbamate] | –
53 | – | 25 | – | COc1cc2ncnc(Oc3ccc(NC(=O)OCc4ccccc4C)c([N+](=O)[O-])c3)c2cc1OC [Example 505, 2-Methylbenzyl N-{4-[(6,7-dimethoxy-4-quinazolinyl)oxy]-2-nitrophenyl}carbamate] | –
74 | 369 | – | – | COc1cc2ncnc(Oc3ccc(NC(=O)OCC4CCCCCC4)c([N+](=O)[O-])c3)c2cc1OC [Example 506, Cycloheptylmethyl N-{4-[(6,7-dimethoxy-4-quinazolinyl)oxy]-2-nitrophenyl}carbamate] | –
44 | 787 | – | – | COc1cc2ncnc(Oc3ccc(NC(=O)OC4CCCCCC4)c([N+](=O)[O-])c3)c2cc1OC [Example 507, Cycloheptyl N-{4-[(6,7-dimethoxy-4-quinazolinyl)oxy]-2-nitrophenyl}carbamate] | –
26 | 164 | – | – | CCCCCCOC(=O)Nc1ccc(Oc2ncnc3cc(OC)c(OC)cc23)cc1[N+](=O)[O-] [Example 509, Hexyl N-{4-[(6,7-dimethoxy-4-quinazolinyl)oxy]-2-nitrophenyl}carbamate] | –
> 100 | – | 17 | 3 | C#CCC(CC)OC(=O)Nc1ccc(Oc2ncnc3cc(OC)c(OC)cc23)cc1[N+](=O)[O-] (stereo not drawn) [Example 510, 1-Ethyl-3-butynyl N-{4-[(6,7-dimethoxy-4-quinazolinyl)oxy]-2-nitrophenyl}carbamate] | –
19 | 663 | – | – | CCN(CC)CCNC(=S)Nc1ccc(Oc2ccnc3cc(OC)c(OC)cc23)c(C)c1C [Example 511, N-{4-[(6,7-Dimethoxy-4-quinolyl)oxy]-2,3-dimethylphenyl}-N′-(2-diethylaminoethyl)thiourea] | –
> 100 | – | 29 | 31 | COc1cc2nccc(Oc3cc(C)c(NC(=S)NCCN4CCCCC4)cc3C)c2cc1OC [Example 514] | –

IC50 [1] [nM] | IC50 [2] [nM] | inhibition at 1 µM [2] [%] | inhibition at 0.1 µM [1] [%] | Structure (SMILES) | PDGF (E) inhibition (%) at 100 nM [1] [%]
> 100 | – | 21 | 32 | COc1cc2nccc(Oc3cc(C)c(NC(=S)NCCNC(C)=O)cc3C)c2cc1OC [Example 515, N-{4-[(6,7-Dimethoxy-4-quinolyl)oxy]-2,5-dimethylphenyl}-N′-(2-acetamidoethyl)thiourea] | –
38 | – | 33 | – | COc1cc2ncnc(Oc3ccc(NC(=S)NCCN4CCCCC4)cc3)c2cc1OC [Example 517, N-{4-[(6,7-Dimethoxy-4-quinazolinyl)oxy]phenyl}-N′-[2-(1-piperidinyl)ethyl]thiourea] | –
> 100 | – | 21 | 21 | COc1cc2ncnc(Oc3ccc(NC(=S)NN4CCCCC4)cc3)c2cc1OC [Example 524, N-{4-[(6,7-Dimethoxy-4-quinazolinyl)oxy]phenyl}-N′-(1-piperidinyl)thiourea] | –
79 | – | 41 | – | COc1cc2ncnc(Oc3ccc(NC(=S)NCCCN4CCCC4=O)cc3)c2cc1OC [Example 525, N-{4-[(6,7-Dimethoxy-4-quinazolinyl)oxy]phenyl}-N′-[3-(2-oxotetrahydro-1H-1-pyrrolyl)-propyl]thiourea] | –
> 100 | 731 | – | 46 | COc1cc2ncnc(Oc3ccc(NC(=S)NCCCn4ccnc4)cc3)c2cc1OC [Example 526, N-{4-[(6,7-Dimethoxy-4-quinazolinyl)oxy]phenyl}-N′-[3-(1-imidazoyl)propyl]thiourea] | –
65 | 875 | – | – | COc1cc2ncnc(Oc3ccc(NC(=S)NCCN4CCOCC4)cc3)c2cc1OC [Example 527, N-{4-[(6,7-Dimethoxy-4-quinazolinyl)oxy]phenyl}-N′-[2-(1-morpholinyl)ethyl]thiourea] | –
33 | 343 | – | – | CCN(CCNC(=S)Nc1ccc(Oc2ncnc3cc(OC)c(OC)cc23)cc1)c1ccccc1C [Example 528] | –
> 100 | – | 8 | 38 | COc1cc2ncnc(Oc3ccc(NC(=S)NCCN(C)C)cc3)c2cc1OC [Example 529, N-{4-[(6,7-Dimethoxy-4-quinazolinyl)oxy]phenyl}-N′-(2-dimethylaminoethyl) thiourea] | –
> 100 | – | 34 | 45 | COc1cc2ncnc(Oc3ccc(NC(=S)NCCN4CCCC4)cc3)c2cc1OC [Example 530, N-{4-[(6,7-Dimethoxy-4-quinazolinyl)oxy]phenyl}-N′-[2-(1-pyrrolidyl)ethyl]thiourea] | –
> 100 | 752 | – | 44 | CCCCN(CCCC)C(C)CNC(=S)Nc1ccc(Oc2ncnc3cc(OC)c(OC)cc23)cc1 (stereo not drawn) [Example 532, N-{4-[(6,7-Dimethoxy-4-quinazolinyl)oxy]phenyl}-N′-(2-dibutylaminopropyl)thiourea] | –
64 | 623 | – | – | COc1cc2ncnc(Oc3ccc(NC(=S)NCCCN4CCOCC4)cc3)c2cc1OC [Example 533, N-{4-[(6,7-Dimethoxy-4-quinazolinyl)oxy]phenyl}-N′-[3-(1-morpholino)propyl]thiourea] | –
51 | – | 35 | – | COc1cc2ncnc(Oc3ccc(NC(=S)NCCCN4CCCCC4C)cc3)c2cc1OC (stereo not drawn) [Example 534, N-{4-[(6,7-Dimethoxy-4-quinazolinyl)oxy]phenyl}-N′-{3-[1-(2-methylpiperidinyl)]propyl}thiourea] | –
32 | – | 27 | – | COc1cc2ncnc(Oc3ccc(NC(=S)NCCN(C(C)C)C(C)C)cc3)c2cc1OC [Example 535, N-{4-[(6,7-Dimethoxy-4-quinazolinyl)oxy]phenyl}-N′-(2-diisopropylaminoethyl)thiourea] | –
> 100 | – | 34 | 34 | COc1cc2ncnc(Oc3ccc(NC(=S)NCCCN4CCCC4)cc3)c2cc1OC [Example 537, N-{4-[(6,7-Dimethoxy-4-quinazolinyl)oxy]phenyl}-N′-[3-(1-pyrrolidinyl)propyl]thiourea] | –
> 100 | 768 | – | 22 | COc1cc2nccc(Oc3cc(C)c(NC(=S)NCCN(C)C)cc3C)c2cc1OC [Example 538, N-{4-[(6,7-Dimethoxy-4-quinolyl)oxy]-2,5-dimethylphenyl}-N′-(2-dimethylaminoethyl)thiourea] | –

Structure (SMILES) | IC50 [1] [nM] | IC50 [2] [nM] | inhibition at 1 µM [2] [%] | inhibition at 0.1 µM [1] [%] | PDGF (E) inhibition (%) at 100 nM [1] [%]
COc1cc2nccc(Oc3ccc(NC(=S)NC4CCN(Cc5ccccc5)CC4)c(C)c3C)c2cc1OC [Example 513, N-{4-[(6,7-Dimethoxy-4-quinolyl)oxy]-2,3-dimethylphenyl}-N′-[4-(N-benzyl)piperidinyl]thiourea] | > 100 | 720 | – | – | 28
COc1cc2nccc(Oc3cc(C)c(NC(=S)NCCCn4ccnc4)cc3C)c2cc1OC [Example 539] | > 100 | 415 | – | – | 45

Reference: patent US7135466B2 (Kirin Beer Kabushiki Kaisha, priority 1999, dated 2006)
